Patent US12391737B2, “Soluble NPY2 receptor agonists” (Boehringer Ingelheim International GmbH, priority 2020, dated 2025)

Key:
[1] = target: T1, Human Neuropeptide Y2 Receptor (Homo sapiens, UniProt P49146); assay: Radioligand binding competition assay (RLB); settings: Table 3, 125I-PYY(1-36) competition; read-out: Ki
T1 construct: purchased CHEMICON HTS066M
T1 sequence (P49146 1-381): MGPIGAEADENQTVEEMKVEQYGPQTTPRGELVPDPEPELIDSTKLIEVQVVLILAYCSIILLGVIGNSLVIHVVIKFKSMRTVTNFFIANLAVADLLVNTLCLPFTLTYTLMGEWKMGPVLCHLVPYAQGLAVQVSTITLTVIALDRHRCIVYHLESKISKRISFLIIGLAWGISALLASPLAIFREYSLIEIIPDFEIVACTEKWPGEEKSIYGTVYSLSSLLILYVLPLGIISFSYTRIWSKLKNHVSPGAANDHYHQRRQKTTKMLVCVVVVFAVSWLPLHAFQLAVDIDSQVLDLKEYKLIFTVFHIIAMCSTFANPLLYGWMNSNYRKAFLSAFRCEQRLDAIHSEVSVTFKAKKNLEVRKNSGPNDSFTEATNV
Outline: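 Peptides were serially diluted from 1 mM DMSO stocks and competed for radioligand binding to receptor membranes (0.5 μg/well) over 2 h at room temperature, pH 7.4 HEPES buffer. Bound radioactivity on filters was counted by scintillation, and IC50 was derived by nonlinear regression.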

Solubility determination = settings: for Sol6: pH 6; for Sol7: pH 7
Outline: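 Sample: TFA-salt peptide at 10 mg/ml target in 0.1 M Na diphosphate, pH 6.4 or 7.0, shaken 2 h RT, filtered, diluted to 1 mg/ml.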

Row | SMILES | Ki [1] [nM] | Sol6 (Solubility determination) [mg/mL] | Sol7 (Solubility determination) [mg/mL]
1 | CC(C)CC(=O)N[C@@H](C)C(=O)N1CCC[C@H]1C(=O)N[C@@H](CCC(=O)O)C(=O)N[C@@H](CCCCNC(=O)CCCCCNC(=O)CC[C@H](NC(=O)CCCCCCCCCCCCCCCCC(=O)O)C(=O)O)C(=O)N1CCC[C@H]1C(=O)N[C@@H](CCC(=O)O)C(=O)N[C@@H](CCC(=O)O)C(=O)N[C@@H](CC(=O)O)C(=O)N[C@@H](C)C(=O)N[C@H](C(=O)N1CCC[C@H]1C(=O)N[C@@H](CCC(=O)O)C(=O)N[C@@H](CCC(=O)O)C(=O)N[C@@H](CC(C)C)C(=O)N[C@@H](CCC(N)=O)C(=O)N[C@@H](CO)C(=O)N[C@@H](Cc1ccc(O)cc1)C(=O)N[C@@H](Cc1ccc(O)cc1)C(=O)N[C@H](C(=O)N[C@@H](CO)C(=O)N[C@@H](CC(C)C)C(=O)N[C@@H](CCCNC(=N)N)C(=O)N[C@@H](Cc1c[nH]cn1)C(=O)N[C@@H](Cc1ccc(O)cc1)C(=O)N[C@@H](Cc1ccc(O)cc1)C(=O)N[C@@H](CC(N)=O)C(=O)N[C@@H](Cc1c[nH]c2ccccc12)C(=O)N[C@@H](CC(C)C)C(=O)N[C@H](C(=O)N[C@@H](CCCNC(=N)N)C(=O)N[C@@H](CCC(N)=O)C(=O)N[C@@H](CCCNC(=N)N)C(=O)N[C@@H](Cc1ccc(O)cc1)C(N)=O)[C@@H](C)O)C(C)C)[C@@H](C)O [Compound 141, N{alpha-4}-(3-methylbutanoyl)-N{epsilon-7}-(6-[(4S)-4-carboxy-4-(17-carboxyheptadecanamido)butanamido]hexanoyl)-[4A,7K,9E,13T,18Q,19S,22V,28Y,30W,31L]-hPYY(4-36)] | 8.17 | 9.6 | 9.7
2 | CC(C)CC(=O)N[C@@H](C)C(=O)N1CCC[C@H]1C(=O)N[C@@H](CCC(=O)O)C(=O)N[C@@H](CCCCNC(=O)CCCCCNC(=O)CC[C@H](NC(=O)CCCCCCCCCCCCCCCCC(=O)O)C(=O)O)C(=O)N1CCC[C@H]1C(=O)N[C@@H](CCC(=O)O)C(=O)N[C@@H](CCC(=O)O)C(=O)N[C@@H](CC(=O)O)C(=O)N[C@@H](CCC(N)=O)C(=O)N[C@H](C(=O)N1CCC[C@H]1C(=O)N[C@@H](CCC(=O)O)C(=O)N[C@@H](CCC(=O)O)C(=O)N[C@@H](CC(C)C)C(=O)N[C@@H](CCC(N)=O)C(=O)N[C@@H](CCCNC(=N)N)C(=O)N[C@@H](Cc1ccc(O)cc1)C(=O)N[C@@H](Cc1ccc(O)cc1)C(=O)N[C@H](C(=O)N[C@@H](CO)C(=O)N[C@@H](CC(C)C)C(=O)N[C@@H](CCCNC(=N)N)C(=O)N[C@@H](Cc1c[nH]cn1)C(=O)N[C@@H](Cc1ccc(O)cc1)C(=O)N[C@@H](Cc1ccc(O)cc1)C(=O)N[C@@H](CC(N)=O)C(=O)N[C@@H](Cc1c[nH]c2ccccc12)C(=O)N[C@@H](CC(C)C)C(=O)N[C@H](C(=O)N[C@@H](CCCNC(=N)N)C(=O)N[C@@H](CCC(N)=O)C(=O)N[C@@H](CCCNC(=N)N)C(=O)N[C@@H](Cc1ccc(O)cc1)C(N)=O)[C@@H](C)O)C(C)C)[C@@H](C)O [Compound 144, N{alpha-4}-(3-methylbutanoyl)-N{epsilon-7}-(6-[(4S)-4-carboxy-4-(17-carboxyheptadecanamido)butanamido]hexanoyl)-[4A,7K,9E,12Q,13T,18Q,22V,28Y,30W,31L]-hPYY(4-36)] | 9.76 | 9.7 | 9.6
3 | CC[C@H](C)[C@H](NC(=O)[C@H](CCC(=O)O)NC(=O)[C@H](CCC(=O)O)NC(=O)[C@@H]1CCCN1C(=O)[C@@H](NC(=O)[C@H](C)NC(=O)[C@H](CC(=O)O)NC(=O)[C@H](CCC(=O)O)NC(=O)[C@@H]1CCCN1C(=O)[C@@H]1CCCN1C(=O)[C@H](CCCCNC(=O)CCCCCNC(=O)CC[C@H](NC(=O)CCCCCCCCCCCCCCCCC(=O)O)C(=O)O)NC(=O)[C@H](CCC(=O)O)NC(=O)[C@@H]1CCCN1C(=O)[C@H](C)NC(=O)CC(C)C)[C@@H](C)O)C(=O)N[C@@H](CCC(N)=O)C(=O)N[C@@H](CCCNC(=N)N)C(=O)N[C@@H](Cc1ccc(O)cc1)C(=O)N[C@@H](Cc1ccc(O)cc1)C(=O)N[C@H](C(=O)N[C@@H](CO)C(=O)N[C@@H](CC(C)C)C(=O)N[C@@H](CCCNC(=N)N)C(=O)N[C@@H](Cc1c[nH]cn1)C(=O)N[C@@H](Cc1ccc(O)cc1)C(=O)N[C@@H](Cc1ccc(O)cc1)C(=O)N[C@@H](CC(N)=O)C(=O)N[C@@H](Cc1c[nH]c2ccccc12)C(=O)N[C@@H](CC(C)C)C(=O)N[C@H](C(=O)N[C@@H](CCCNC(=N)N)C(=O)N[C@@H](CCC(N)=O)C(=O)N[C@@H](CCCNC(=N)N)C(=O)N[C@@H](Cc1ccc(O)cc1)C(N)=O)[C@@H](C)O)C(C)C [Compound 28, N{alpha-4}-(3-methylbutanoyl)-N{epsilon-7}-(6-[(4S)-4-carboxy-4-(17-carboxyheptadecanamido)butanamido]hexanoyl)[4A,7K,9P,13T,17I,18Q,22V,28Y,30W,31L]-hPYY(4-36)] | 0.49 | >10.0 | >10.0
4 | CC(C)CC(=O)N[C@@H](C)C(=O)N1CCC[C@H]1C(=O)N[C@@H](C)C(=O)N[C@@H](CCCCNC(=O)CCCCCNC(=O)CC[C@H](NC(=O)CCCCCCCCCCCCCCCCC(=O)O)C(=O)O)C(=O)N1CCC[C@H]1C(=O)N[C@@H](CCC(=O)O)C(=O)N[C@@H](CCC(=O)O)C(=O)N[C@@H](CC(=O)O)C(=O)N[C@@H](C)C(=O)N[C@@H](CO)C(=O)N1CCC[C@H]1C(=O)N[C@@H](CCC(=O)O)C(=O)N[C@@H](CCC(=O)O)C(=O)N[C@@H](CC(C)C)C(=O)N[C@@H](CCC(N)=O)C(=O)N[C@@H](CCCNC(=N)N)C(=O)N[C@@H](Cc1ccc(O)cc1)C(=O)N[C@@H](CCC(N)=O)C(=O)N[C@H](C(=O)N[C@@H](CO)C(=O)N[C@@H](CC(C)C)C(=O)N[C@@H](CCCNC(=N)N)C(=O)N[C@@H](Cc1c[nH]cn1)C(=O)N[C@@H](Cc1ccc(O)cc1)C(=O)N[C@@H](Cc1ccc(O)cc1)C(=O)N[C@@H](CC(N)=O)C(=O)N[C@@H](Cc1c[nH]c2ccccc12)C(=O)N[C@@H](CC(C)C)C(=O)N[C@H](C(=O)N[C@@H](CCCNC(=N)N)C(=O)N[C@@H](CCC(N)=O)C(=O)N[C@@H](CCCNC(=N)N)C(=O)N[C@@H](Cc1ccc(O)cc1)C(N)=O)[C@@H](C)O)C(C)C [Compound 20, N{alpha-4}-(3-methylbutanoyl)-N{epsilon-7}-(6-[(4S)-4-carboxy-4-(17-carboxyheptadecanamido)butanamido]hexanoyl)[4A,6A,7K,9E,18Q,21Q,22V,28Y,30W,31L]-hPYY(4-36)] | 2.41 | >10.0 | 10.0
5 | CC(C)CC(=O)N[C@@H](C)C(=O)N1CCC[C@H]1C(=O)N[C@@H](CCC(=O)O)C(=O)N[C@@H](CCCCNC(=O)CCCCCNC(=O)CC[C@H](NC(=O)CCCCCCCCCCCCCCCCC(=O)O)C(=O)O)C(=O)N1CCC[C@H]1C(=O)N[C@@H](CCC(=O)O)C(=O)N[C@@H](CCC(=O)O)C(=O)N[C@@H](CC(=O)O)C(=O)N[C@@H](C)C(=O)N[C@H](C(=O)N1CCC[C@H]1C(=O)N[C@@H](CCC(=O)O)C(=O)N[C@@H](CCC(=O)O)C(=O)N[C@@H](CC(C)C)C(=O)N[C@@H](CCC(N)=O)C(=O)N[C@@H](CCCNC(=N)N)C(=O)N[C@@H](Cc1ccc(O)cc1)C(=O)N[C@@H](Cc1ccc(O)cc1)C(=O)N[C@H](C(=O)NCC(=O)N[C@@H](CC(C)C)C(=O)N[C@@H](CCCNC(=N)N)C(=O)N[C@@H](Cc1c[nH]cn1)C(=O)N[C@@H](Cc1ccc(O)cc1)C(=O)N[C@@H](Cc1ccc(O)cc1)C(=O)N[C@@H](CC(N)=O)C(=O)N[C@@H](Cc1c[nH]c2ccccc12)C(=O)N[C@@H](CC(C)C)C(=O)N[C@H](C(=O)N[C@@H](CCCNC(=N)N)C(=O)N[C@@H](CCC(N)=O)C(=O)N[C@@H](CCCNC(=N)N)C(=O)N[C@@H](Cc1ccc(O)cc1)C(N)=O)[C@@H](C)O)C(C)C)[C@@H](C)O [Compound 44, N{alpha-4}-(3-methylbutanoyl)-N{epsilon-7}-(6-[(4S)-4-carboxy-4-(17-carboxyheptadecanamido)butanamido]hexanoyl)[4A,7K,9E,13T,18Q,22V,23G,28Y,30W,31L]-hPYY(4-36)] | 5.86 | 9.7 | 10.0
